Results on 14 compounds are retold here after patent US20260028326A1, “COMPOUND BASED ON ISOINDOLINE-SUBSTITUTED GLUTARIMIDE BACKBONE AND USE THEREOF” (GLUETACS THERAPEUTICS (SHANGHAI) CO., LTD., priority 2022, published 2026).

Assay [1] has as its target human Cereblon WT GST-tagged protein (Homo sapiens (Human), UniProt Q96SW2). Put plainly: CRBN-binding affinity, HTRF (CEREBLON BINDING kit). An outline of the steps:
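GST-tagged human WT Cereblon incubated with compound, then Thalidomide-Re tracer and anti-GST Eu antibody added. Displacement read by HTRF, reported as CRBN binding inhibition rate against blank control wells without protein.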
A general note: In TR-FRET formats the signal depends on donor and acceptor labels being close together.

The target in a further assay is IKZF1 protein (Homo sapiens (Human), UniProt Q13422+Q96SW2). Put plainly: Western-blot assay of substrate protein degradation in hPBMC, IKZF1. The format is cell-based. To be noted: hPBMC cells, compound 500 nM, 24 hours, Western blot. (Immunoblotting shows a protein as a band on a membrane.)
The target in a further assay is IKZF3 protein (Homo sapiens (Human), UniProt Q96SW2+Q9UKT9). Put plainly: Western-blot assay of substrate protein degradation in hPBMC, IKZF3. Type of assay: cell-based. To be noted: hPBMC cells, compound 500 nM, 24 hours, Western blot.
The target of another assay is GSPT1 protein (Homo sapiens (Human), UniProt P15170+Q96SW2). Put plainly: Western-blot assay of substrate protein degradation in hPBMC, GSPT1. To be noted: hPBMC cells, compound 500 nM, 24 hours, Western blot. Type of assay: cell-based.
The subject of the next assay is Mino cells. Put plainly: Tumor cell proliferation IC50 (CCK-8), Mino.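 Also: cell viability assessed with CCK-8 reagent after compound exposure, IC50 derived from plotted growth inhibition curves.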 To be noted: Homo sapiens, 72 h, read-out: IC50 for inhibiting the proliferation of tumor cells, Mino.
The subject of the next assay is MM.1S cells. Put plainly: Tumor cell proliferation IC50 (CCK-8), MM.1S.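 Also: viability of cultured cells read by CCK-8 reagent after compound exposure, growth inhibition curves fitted to derive IC50.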 The following applies: Homo sapiens, MM1.S, 72 h, read-out: IC50 for inhibiting the proliferation of tumor cells, MM.1S.

IKZF1 protein, sequence (Q13422 whole entry): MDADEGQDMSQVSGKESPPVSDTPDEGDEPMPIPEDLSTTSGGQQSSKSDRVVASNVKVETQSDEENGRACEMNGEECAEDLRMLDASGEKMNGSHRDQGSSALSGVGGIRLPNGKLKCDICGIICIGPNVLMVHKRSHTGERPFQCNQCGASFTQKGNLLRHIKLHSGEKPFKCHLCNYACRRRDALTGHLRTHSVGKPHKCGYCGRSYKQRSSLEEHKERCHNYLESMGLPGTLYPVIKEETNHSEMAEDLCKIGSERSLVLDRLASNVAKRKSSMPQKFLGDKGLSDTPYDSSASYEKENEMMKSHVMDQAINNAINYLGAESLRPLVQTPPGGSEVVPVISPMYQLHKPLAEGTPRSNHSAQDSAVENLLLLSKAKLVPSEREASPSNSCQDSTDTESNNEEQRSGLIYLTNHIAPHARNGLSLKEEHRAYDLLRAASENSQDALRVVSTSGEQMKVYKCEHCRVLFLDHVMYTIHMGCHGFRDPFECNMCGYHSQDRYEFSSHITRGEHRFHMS
IKZF1 protein, sequence (Q96SW2 whole entry): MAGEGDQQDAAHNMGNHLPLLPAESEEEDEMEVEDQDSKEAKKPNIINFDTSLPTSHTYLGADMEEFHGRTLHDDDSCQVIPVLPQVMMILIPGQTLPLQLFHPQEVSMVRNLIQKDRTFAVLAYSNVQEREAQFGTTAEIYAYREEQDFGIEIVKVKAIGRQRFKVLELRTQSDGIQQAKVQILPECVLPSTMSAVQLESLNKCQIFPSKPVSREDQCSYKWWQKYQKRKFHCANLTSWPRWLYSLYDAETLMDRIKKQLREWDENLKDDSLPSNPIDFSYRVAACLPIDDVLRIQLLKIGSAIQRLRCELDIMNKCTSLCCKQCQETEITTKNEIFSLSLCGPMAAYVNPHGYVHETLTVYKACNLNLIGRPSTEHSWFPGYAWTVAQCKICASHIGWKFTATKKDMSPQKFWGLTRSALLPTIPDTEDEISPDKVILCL
IKZF1 protein, sequence (Q16531 whole entry partner): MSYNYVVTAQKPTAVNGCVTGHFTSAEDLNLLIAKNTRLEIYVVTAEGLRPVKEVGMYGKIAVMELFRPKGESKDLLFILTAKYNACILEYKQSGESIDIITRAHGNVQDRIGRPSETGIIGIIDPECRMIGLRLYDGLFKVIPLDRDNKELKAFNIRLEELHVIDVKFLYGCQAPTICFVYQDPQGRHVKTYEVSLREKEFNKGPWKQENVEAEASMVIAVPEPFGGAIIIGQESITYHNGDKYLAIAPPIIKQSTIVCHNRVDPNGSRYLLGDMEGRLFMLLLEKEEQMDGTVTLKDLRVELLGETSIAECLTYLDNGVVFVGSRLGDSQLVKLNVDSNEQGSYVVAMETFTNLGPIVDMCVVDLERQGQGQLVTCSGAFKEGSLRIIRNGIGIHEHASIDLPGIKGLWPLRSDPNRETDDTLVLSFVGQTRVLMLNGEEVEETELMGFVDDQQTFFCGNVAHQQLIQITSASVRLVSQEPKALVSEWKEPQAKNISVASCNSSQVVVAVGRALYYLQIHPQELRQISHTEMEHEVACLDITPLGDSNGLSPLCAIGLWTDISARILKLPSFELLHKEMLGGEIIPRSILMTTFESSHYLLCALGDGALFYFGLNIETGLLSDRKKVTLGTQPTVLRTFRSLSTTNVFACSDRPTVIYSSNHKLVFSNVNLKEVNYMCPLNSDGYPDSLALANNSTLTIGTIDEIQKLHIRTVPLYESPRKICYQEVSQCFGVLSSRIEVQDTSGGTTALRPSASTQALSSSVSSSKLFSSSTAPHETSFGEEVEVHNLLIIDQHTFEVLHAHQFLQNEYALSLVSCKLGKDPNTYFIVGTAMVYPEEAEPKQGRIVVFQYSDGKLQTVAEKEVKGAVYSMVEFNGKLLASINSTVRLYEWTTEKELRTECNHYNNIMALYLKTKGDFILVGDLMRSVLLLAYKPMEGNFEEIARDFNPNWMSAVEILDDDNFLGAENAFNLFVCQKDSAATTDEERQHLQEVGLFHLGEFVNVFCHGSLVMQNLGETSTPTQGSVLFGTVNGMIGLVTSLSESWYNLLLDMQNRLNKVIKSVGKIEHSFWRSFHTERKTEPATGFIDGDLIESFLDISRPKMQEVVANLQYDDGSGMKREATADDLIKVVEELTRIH
GSPT1 protein, sequence (P15170 whole entry): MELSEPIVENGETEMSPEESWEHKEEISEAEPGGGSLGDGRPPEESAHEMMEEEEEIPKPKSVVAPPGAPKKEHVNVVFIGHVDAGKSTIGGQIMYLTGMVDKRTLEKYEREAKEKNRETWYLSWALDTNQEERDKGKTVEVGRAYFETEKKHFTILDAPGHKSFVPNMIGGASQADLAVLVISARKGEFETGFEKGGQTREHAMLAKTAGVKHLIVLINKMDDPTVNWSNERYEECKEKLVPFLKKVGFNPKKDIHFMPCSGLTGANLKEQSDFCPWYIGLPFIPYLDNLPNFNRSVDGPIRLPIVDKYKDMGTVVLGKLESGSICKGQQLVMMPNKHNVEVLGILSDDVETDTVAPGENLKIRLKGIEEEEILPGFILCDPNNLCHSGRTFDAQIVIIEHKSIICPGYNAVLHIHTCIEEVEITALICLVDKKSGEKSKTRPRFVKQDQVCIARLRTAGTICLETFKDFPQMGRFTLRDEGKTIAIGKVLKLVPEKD
GSPT1 protein, sequence (Q96SW2 whole entry): as the sequence (Q96SW2 whole entry) above
GSPT1 protein, sequence (Q16531 whole entry partner): as the sequence (Q16531 whole entry partner) above
human Cereblon WT GST-tagged protein, sequence (Q96SW2 whole entry): as the sequence (Q96SW2 whole entry) above
IKZF3 protein, sequence (Q9UKT9 whole entry): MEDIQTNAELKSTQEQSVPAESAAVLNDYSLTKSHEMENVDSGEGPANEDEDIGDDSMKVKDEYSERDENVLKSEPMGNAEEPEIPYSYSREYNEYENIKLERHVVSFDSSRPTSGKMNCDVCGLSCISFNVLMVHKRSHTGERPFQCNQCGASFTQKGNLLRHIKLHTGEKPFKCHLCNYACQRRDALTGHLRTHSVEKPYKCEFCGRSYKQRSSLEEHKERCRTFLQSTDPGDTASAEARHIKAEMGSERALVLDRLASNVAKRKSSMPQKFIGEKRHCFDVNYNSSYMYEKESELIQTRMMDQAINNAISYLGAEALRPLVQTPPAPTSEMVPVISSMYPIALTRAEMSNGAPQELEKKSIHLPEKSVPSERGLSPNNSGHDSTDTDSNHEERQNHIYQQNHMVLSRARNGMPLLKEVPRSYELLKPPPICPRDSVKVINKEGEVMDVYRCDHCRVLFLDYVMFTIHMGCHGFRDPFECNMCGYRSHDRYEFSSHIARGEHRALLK
IKZF3 protein, sequence (Q96SW2 whole entry): as the sequence (Q96SW2 whole entry) above
IKZF3 protein, sequence (Q16531 whole entry partner): as the sequence (Q16531 whole entry partner) above

As for `Cn1nccc1-c1ccccc1CN1CCN(Cc2ccc3c(c2)CN(C2CCC(=O)NC2=O)C3=O)CC1` (centres unmarked) [GT-05702, 3-(5-((4-(2-(1-methyl-1H-pyrazol-5-yl)benzyl)piperazin-1-yl)methyl)-1-oxoisoindolin-2-yl)piperidine-2,6-dione], the IC50 in assay [1] is 610 nM; with Mino cells it was 500 to 1000 nM; in the assay with MM.1S cells it was 100 to 500 nM. Besides, at IKZF1 protein, the “residual substrate protein level, IKZF1” value is recorded as “A (A represents a residual substrate protein level of <50%)”. In addition, the “residual substrate protein level, IKZF3” value on IKZF3 protein is given as “A (A represents a residual substrate protein level of <50%)”. For the same compound, the “residual substrate protein level, GSPT1” value on GSPT1 protein is on record as “A (A represents a residual substrate protein level of <50%)”.

As to `O=C1CCC(N2Cc3cc(CN4CCN(C(=O)c5ccccc5-c5ccc(Cl)cc5)CC4)ccc3C2=O)C(=O)N1` (centres unmarked) [GT-03891, 3-(5-((4-(4′-chloro-[1,1′-biphenyl]-2-carbonyl)piperazin-1-yl)methyl)-1-oxoisoindolin-2-yl)piperidine-2,6-dione], the results for the IC50 (in assay [1]; in the assay with Mino cells; in the assay with MM.1S cells) were 230 nM, 100 to 500 nM and 100 to 500 nM, respectively.

Regarding `O=C1CCC(N2Cc3cc(CN4C5CCC4CN(C(=O)c4ccccc4-c4ccc(Cl)cc4)C5)ccc3C2=O)C(=O)N1` (centres unmarked) [GT-05788, 3-(5-((3-(4′-chloro-[1,1′-biphenyl]-2-carbonyl)-3,8-diazabicyclo[3.2.1]octan-8-yl)methyl)-1-oxoisoindolin-2-yl)piperidine-2,6-dione], the IC50 was 500 nM in assay [1], 100 to 500 nM with Mino cells and 50 to 100 nM in the assay on MM.1S cells.

As for `O=C1CCC(N2Cc3cc(CN4CCN(Cc5cnc(-c6ccccc6)cn5)CC4)ccc3C2=O)C(=O)N1` (centres unmarked) [GT-05544, 3-(1-oxo-5-((4-((5-phenylpyrazin-2-yl)methyl)piperazin-1-yl)methyl)isoindolin-2-yl)piperidine-2,6-dione], the IC50 in assay [1] is 840 nM; in the assay with Mino cells it was 5 to 10 nM; in the assay on MM.1S cells, 100 to 500 nM. For the same compound, the “residual substrate protein level, IKZF1” value on IKZF1 protein is on record as “A (A represents a residual substrate protein level of <50%)”. The “residual substrate protein level, IKZF3” value on IKZF3 protein was “A (A represents a residual substrate protein level of <50%)”. For the same compound, the “residual substrate protein level, GSPT1” value on GSPT1 protein is “B (B represents a residual substrate protein level of >50%)”.

Consider `CC1(C)CCC(C(=O)N2CCC3(CC2)CN(Cc2ccc4c(c2)CN(C2CCC(=O)NC2=O)C4=O)C3)=C(c2ccc(Cl)cc2)C1` (centres unmarked) [GT-05656, 3-(5-((7-(4′-chloro-5,5-dimethyl-3,4,5,6-tetrahydro-[1,1′-biphenyl]-2-carbonyl)-2,7-diazaspiro[3.5]nonan-2-yl)methyl)-1-oxoisoindolin-2-yl)piperidine-2,6-dione], for which the IC50 is 700 nM in assay [1] and 100 to 500 nM with MM.1S cells. Moreover, the “residual substrate protein level, IKZF1” value on IKZF1 protein was “B (B represents a residual substrate protein level of >50%)”. Moreover, on IKZF3 protein, the “residual substrate protein level, IKZF3” value is “A (A represents a residual substrate protein level of <50%)”. Also, the “residual substrate protein level, GSPT1” value on GSPT1 protein is listed as “B (B represents a residual substrate protein level of >50%)”.

`O=C1CCC(N2Cc3c(ccc(CN4CCN(C(=O)c5ccccc5-c5ccc(Cl)cc5)CC4)c3F)C2=O)C(=O)N1` (centres unmarked) [GT-05649, 3-(5-((4-(4′-chloro-[1,1′-biphenyl]-2-carbonyl)piperazin-1-yl)methyl)-4-fluoro-1-oxoisoindolin-2-yl)piperidine-2,6-dione]: the IC50 in assay [1] was 680 nM; in the assay on Mino cells it was 100 to 500 nM; in the assay on MM.1S cells it was 100 to 500 nM. Besides, on IKZF1 protein, the “residual substrate protein level, IKZF1” value is “B (B represents a residual substrate protein level of >50%)”. For the same compound, the “residual substrate protein level, IKZF3” value at IKZF3 protein is “A (A represents a residual substrate protein level of <50%)”. Also, on GSPT1 protein, the “residual substrate protein level, GSPT1” value was “B (B represents a residual substrate protein level of >50%)”.

As to `CC1(C)CCC(CN2CCC3(CC2)CN(Cc2ccc4c(c2)CN(C2CCC(=O)NC2=O)C4=O)C3)=C(c2ccc(Cl)cc2)C1` (centres unmarked) [GT-05677, 3-(5-((7-((4′-chloro-5,5-dimethyl-3,4,5,6-tetrahydro-[1,1′-biphenyl]-2-yl)methyl)-2,7-diazaspiro[3.5]nonan-2-yl)methyl)-1-oxoisoindolin-2-yl)piperidine-2,6-dione], the figures for the IC50 (in assay [1]; in the assay on MM.1S cells) were 1230 nM and 50 to 100 nM, respectively. Further, on IKZF1 protein, the “residual substrate protein level, IKZF1” value is recorded as “A (A represents a residual substrate protein level of <50%)”. In addition, the “residual substrate protein level, IKZF3” value on IKZF3 protein is reported as “A (A represents a residual substrate protein level of <50%)”. On GSPT1 protein, the “residual substrate protein level, GSPT1” value is listed as “B (B represents a residual substrate protein level of >50%)”.

On to `CC1(C)CCC(CN2CCCN(Cc3ccc4c(c3)CN(C3CCC(=O)NC3=O)C4=O)CC2)=C(c2ccc(Cl)cc2)C1` (centres unmarked) [GT-05396, 3-(5-((4-((4′-chloro-5,5-dimethyl-3,4,5,6-tetrahydro-[1,1′-biphenyl]-2-yl)methyl)-1,4-diazepan-1-yl)methyl)-1-oxoisoindolin-2-yl)piperidine-2,6-dione], for which the IC50 is 590 nM in assay [1] and 100 to 500 nM in the assay with MM.1S cells. Also, the “residual substrate protein level, IKZF1” value at IKZF1 protein is “B (B represents a residual substrate protein level of >50%)”. Also, the “residual substrate protein level, IKZF3” value on IKZF3 protein is “A (A represents a residual substrate protein level of <50%)”. Also, the “residual substrate protein level, GSPT1” value at GSPT1 protein was “A (A represents a residual substrate protein level of <50%)”.

For `O=C1CCC(N2Cc3cc(CN4CCN(Cc5ccccc5-c5cnco5)CC4)ccc3C2=O)C(=O)N1` (centres unmarked) [GT-05849, 3-(5-((4-(2-(oxazol-5-yl)benzyl)piperazin-1-yl)methyl)-1-oxoisoindolin-2-yl)piperidine-2,6-dione], the IC50 in assay [1] is 990 nM; in the assay with Mino cells, 100 to 500 nM; with MM.1S cells, 100 to 500 nM. Besides, at IKZF1 protein, the “residual substrate protein level, IKZF1” value is “A (A represents a residual substrate protein level of <50%)”. For the same compound, the “residual substrate protein level, IKZF3” value on IKZF3 protein is given as “A (A represents a residual substrate protein level of <50%)”. Moreover, the “residual substrate protein level, GSPT1” value on GSPT1 protein is reported as “A (A represents a residual substrate protein level of <50%)”.

In the case of `O=C1CCC(N2Cc3cc(CN4CCN(Cc5ccc(-c6ccc[nH]6)cc5)CC4)ccc3C2=O)C(=O)N1` (centres unmarked) [GT-05734, 3-(5-((4-(4-(1H-pyrrol-2-yl)benzyl)piperazin-1-yl)methyl)-1-oxoisoindolin-2-yl)piperidine-2,6-dione], the IC50 in assay [1] was 110 nM; with Mino cells it was 100 to 500 nM. Moreover, the “residual substrate protein level, IKZF1” value at IKZF1 protein is reported as “B (B represents a residual substrate protein level of >50%)”. Moreover, the “residual substrate protein level, IKZF3” value at IKZF3 protein is “A (A represents a residual substrate protein level of <50%)”. Moreover, the “residual substrate protein level, GSPT1” value at GSPT1 protein is recorded as “B (B represents a residual substrate protein level of >50%)”.

Regarding `O=C1CCC(N2Cc3cc(CN4CCN(Cc5ccc(-c6ccc(Cl)cn6)cc5)CC4)ccc3C2=O)C(=O)N1` (centres unmarked) [GT-05872, 3-(5-((4-(4-(5-chloropyridin-2-yl)benzyl)piperazin-1-yl)methyl)-1-oxoisoindolin-2-yl)piperidine-2,6-dione], the “residual substrate protein level, IKZF1” value at IKZF1 protein is “A (A represents a residual substrate protein level of <50%)”. Also, the “residual substrate protein level, IKZF3” value at IKZF3 protein is listed as “B (B represents a residual substrate protein level of >50%)”. Also, on GSPT1 protein, the “residual substrate protein level, GSPT1” value was “B (B represents a residual substrate protein level of >50%)”. For the same compound, in the assay with MM.1S cells, the IC50 was 500 to 1000 nM.

`CC1(C)CCC(C(=O)N2CC3CC2CN3Cc2ccc3c(c2)CN(C2CCC(=O)NC2=O)C3=O)=C(c2ccc(F)cc2)C1` (centres unmarked) [GT-05403, 3-(5-((5-(4′-fluoro-5,5-dimethyl-3,4,5,6-tetrahydro-[1,1′-biphenyl]-2-carbonyl)-2,5-diazabicyclo[2.2.1]heptan-2-yl)methyl)-1-oxoisoindolin-2-yl)piperidine-2,6-dione]: the figures for the IC50 (in assay [1]; with MM.1S cells) were 550 nM and 5 to 10 nM, respectively.

On to `CC1(C)CCC(CN2CC3CC(C2)N3Cc2cc(F)c3c(c2)CN(C2CCC(=O)NC2=O)C3=O)=C(c2ccc(Cl)cc2)C1` (centres unmarked) [GT-05383, 3-(5-((3-((4′-chloro-5,5-dimethyl-3,4,5,6-tetrahydro-[1,1′-biphenyl]-2-yl)methyl)-3,6-diazabicyclo[3.1.1]heptan-6-yl)methyl)-7-fluoro-1-oxoisoindolin-2-yl)piperidine-2,6-dione], for which the IC50 was 540 nM in assay [1] and 500 to 1000 nM with MM.1S cells. Besides, the “residual substrate protein level, IKZF1” value at IKZF1 protein is reported as “B (B represents a residual substrate protein level of >50%)”. Also, the “residual substrate protein level, IKZF3” value at IKZF3 protein is reported as “B (B represents a residual substrate protein level of >50%)”. Also, on GSPT1 protein, the “residual substrate protein level, GSPT1” value was “A (A represents a residual substrate protein level of <50%)”.

Turning to `O=C1CCC(N2C(=O)c3ccc(N4C5CCC4CN(Cc4ccccc4-c4ccc(Cl)cc4)C5)cc3C2=O)C(=O)N1` (centres unmarked) [GT-05370, 5-(3-((4′-chloro-[1,1′-biphenyl]-2-yl)methyl)-3,8-diazabicyclo[3.2.1]octan-8-yl)-2-(2,6-dioxopiperidin-3-yl)isoindoline-1,3-dione], at IKZF1 protein, the “residual substrate protein level, IKZF1” value was “B (B represents a residual substrate protein level of >50%)”. Besides, on IKZF3 protein, the “residual substrate protein level, IKZF3” value was “A (A represents a residual substrate protein level of <50%)”. Moreover, the “residual substrate protein level, GSPT1” value on GSPT1 protein is “A (A represents a residual substrate protein level of <50%)”. The IC50 in the assay with MM.1S cells was less than 5 nM.
